{"source": "patent US6472425B1", "about": "“Methods for treating female sexual dysfunctions” (NitroMed, Inc., priority 1997, dated 2002)", "test_system": "Human corpus cavernosum tissue", "assay": "In vitro comparative relaxation responses, isometric tension of phenylephrine-contracted tissue strips in organ chambers", "type": "cell-based", "settings": "doses of 10 μM and 30 μM, compared with an equimolar dose of dipyridamole; tissue contracted with phenylephrine 7×10^−7 M; −100% = tone after papaverine 10^−4 M; FIG. 40", "description": "In Vitro Comparative Relaxation Responses\nHuman corpus cavernosum tissue biopsies were obtained at the time of penile prosthesis implantation from impotent men. The tissue was maintained in a chilled Krebs-bicarbonate solution prior to assay. The tissue was cut into strips of 0.3×0.3×1 cm and suspended in organ chambers for isometric tension measurement. Tissues were incrementally stretched until optimal isometric tension for contraction was obtained. Once this was achieved, the tissues were contracted with phenylephine (7×10^−7 M) and once a stable contraction was achieved, the tissues were exposed to either dipyridamole or Example 1 (10^−6 to 3×10^−5 M) by cumulative additions to the chamber. At the end of the experiment papaverine (10^−4 M) is added to obtain maximal relaxation. […] Data are expressed as the percent loss in tone from the phenylephrine-induced contraction (0%=phenylephrine contraction; −100% tone after the administration of papaverine)."}
{"smiles": "CC(C)(CC(=O)OCCN(CCOC(=O)CC(C)(C)SN=O)c1nc(N2CCCCC2)c2nc(N(CCOC(=O)CC(C)(C)SN=O)CCOC(=O)CC(C)(C)SN=O)nc(N3CCCCC3)c2n1)SN=O", "note": "[Example 1, 2,6-bis(diethyl(3-methyl-3(nitrosothiol)butyric acid ester)amino)-4,8-dipiperidinopyrimido-[5,4d]-pyrimidine]", "values": [{"measurement": "relaxing the phenylephrine-induced contraction (percent loss in tone from the phenylephrine-induced contraction)", "value": "more efficacious"}]}
